# Reference: patent publication US20240360146A1, “BRUTON'S TYROSINE KINASE AND MUTANT DEGRADER, COMPOSITION AND APPLICATION THEREOF” (HANGZHOU HEALZEN THERAPEUTICS CO., LTD., priority 2021, published 2024)
# pIC50: −log10 of the molar value.
# Assays:
# [1] = test system: Mino cells; assay: Inhibitory activity on Mino cell proliferation (MTS); format: cell-based; conditions: Homo sapiens, 168 h incubation
# Procedure: The anti-tumor efficacy of the compounds was tested by measuring their inhibitory effects on OCI-LY10 and Mino cell proliferation. OCI-LY10 and Mino cells were cultured in RPMI-1640 medium containing 10% fetal calf serum. OCI-LY10 and Mino cells were digested, inoculated in a 96-well plate at a cell concentration of 10000 cells/well, and incubated overnight at 37° C., 5% CO2. Compounds of different concentrations (1000 nM, 4-fold dilution, 8 points) were added to the 96-well plate and incubated for 72 h (LY10) or 168 h (Mino) at 37° C. and 5% CO2, and then 20 uL of MTS was added to each well. After incubation for 2 h, 25 μl of 10% SDS was added to each well to terminate the reaction. The absorbance at 490 nm and 650 nm were measured with a microplate reader. IC50 was calculated using GraphPad Prism 5.0.
# [2] = biological target: T1, BTK (Homo sapiens, UniProt Q06187); assay: BTK degradation activity test in Mino cells; format: cell-based; conditions: 16 h incubation, Western blot or Elisa
# T1 construct: endogenous in cells; host or cells: Mino cells
# T1 sequence (Q06187 whole entry): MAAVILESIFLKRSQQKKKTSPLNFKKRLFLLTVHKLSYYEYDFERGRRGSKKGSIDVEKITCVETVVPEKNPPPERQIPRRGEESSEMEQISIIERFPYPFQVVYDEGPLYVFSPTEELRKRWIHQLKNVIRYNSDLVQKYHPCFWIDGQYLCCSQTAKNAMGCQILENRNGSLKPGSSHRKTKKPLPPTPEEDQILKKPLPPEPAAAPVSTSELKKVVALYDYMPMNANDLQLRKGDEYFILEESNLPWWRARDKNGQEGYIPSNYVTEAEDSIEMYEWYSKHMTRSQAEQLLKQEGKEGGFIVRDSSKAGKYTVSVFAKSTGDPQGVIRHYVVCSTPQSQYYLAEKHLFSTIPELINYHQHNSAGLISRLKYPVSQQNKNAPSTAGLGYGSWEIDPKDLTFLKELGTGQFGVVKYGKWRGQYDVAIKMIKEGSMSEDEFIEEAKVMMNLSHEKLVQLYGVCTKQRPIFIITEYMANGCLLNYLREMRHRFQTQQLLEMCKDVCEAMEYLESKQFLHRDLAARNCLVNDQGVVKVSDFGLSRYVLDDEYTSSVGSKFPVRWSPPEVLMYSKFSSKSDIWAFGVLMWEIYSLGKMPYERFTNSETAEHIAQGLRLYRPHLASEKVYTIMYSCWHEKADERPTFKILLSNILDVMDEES
# Method in brief: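 Mino cells treated with a concentration series of compound for 16 h, then lysed; total protein by BCA. BTK quantified by Western blot or ELISA, degradation rate calculated against blank control, and DC50 fitted from the degradation curve.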
DC50 [2] [nM],SMILES,pIC50 [1]
< 1,"CN1CCN([C@@H]2CCCN(c3nnc(C(N)=O)c(Nc4ccc(N5CCN(C[C@@H]6CCN(c7ccc(N8CCC(=O)NC8=O)cc7)C6)CC5)c(F)c4)n3)C2)C1=O [Compound 152, 5-((4-(4-(((S)-1-(4-(2,4-dioxotetrahydropyrimidin-1(2H)-yl)phenyl)pyrrolidin-3-yl)methyl)piperazin-1-yl)-3-fluorophenyl)amino)-3-((R)-3-(3-methyl-2-oxoimidazolin-1-yl)piperidin-1-yl)-1,2,4-triazin-6-carboxamide]",8.55
< 1,"CN1CCN([C@@H]2CCCN(c3nnc(C(N)=O)c(Nc4ccc(N5CCN(CC6CCN(c7ccc(C(=O)NC8CCC(=O)NC8=O)c(F)c7F)CC6)CC5)c(F)c4)n3)C2)C1=O (stereo partly drawn) [Compound 182, 5-((4-(4-((1-(4-((2,6-dioxopiperidin-3-yl)carbamoyl)-2,3-difluorophenyl)piperidin-4-yl)methyl)piperazin-1-yl)-3-fluorophenyl)amino)-3-((R)-3-(3-methyl-2-oxoimidazolidin-1-yl)piperidin-1-yl)-1,2,4-triazin-6-carboxamide]",8.50
< 1,"CN1CCN([C@@H]2CCCN(c3nnc(C(N)=O)c(Nc4ccc(N5CCN(CC6CCN(c7ccc(C(=O)NC8CCC(=O)NC8=O)c8c7OCCO8)CC6)CC5)c(F)c4)n3)C2)C1=O (stereo partly drawn) [Compound 183, 5-((4-(4-((1-(8-((2,6-dioxopiperidin-3-yl)carbamoyl)-2,3-dihydrobenzo[b][1,4]dioxan-5-yl)piperidin-4-yl)methyl)piperazin-1-yl)-3-fluorophenyl)amino)-3-((R)-3-(3-methyl-2-oxoimidazolidin-1-yl)piperidin-1-yl)-1,2,4-triazin-6-carboxamide]",8.31
< 1,"CN1CCN([C@@H]2CCCN(c3nnc(C(N)=O)c(Nc4ccc(N5CCN(CC6CCN(c7ccc(N8CCC(=O)NC8=O)cc7F)CC6)CC5)c(F)c4)n3)C2)C1=O [Compound 186, (R)-5-((4-(4-((1-(4-(2,4-dioxotetrahydropyrimidin-1(2H)-yl)-2-fluorophenyl)piperidin-4-yl)methyl)piperazin-1-yl)-3-fluorophenyl)amino)-3-(3-(3-methyl-2-oxoimidazolidin-1-yl)piperidin-1-yl)-1,2,4-triazin-6-carboxamide]",8.65
< 1,"CN1CCN([C@@H]2CCCN(c3nnc(C(N)=O)c(Nc4ccc(N5CCN(CC6CCN(c7ccc(N8CCC(=O)NC8=O)c(C(F)(F)F)c7)CC6)CC5)c(F)c4)n3)C2)C1=O [Compound 187, (R)-5-((4-(4-((1-(4-(2,4-dioxotetrahydropyrimidin-1(2H)-yl)-3-(trifluoromethyl)phenyl)piperidin-4-yl)methyl)piperazin-1-yl)-3-fluorophenyl)amino)-3-(3-(3-methyl-2-oxoimidazolidin-1-yl)piperidin-1-yl)-1,2,4-triazin-6-carboxamide]",8.68
< 1,"CN1CCN([C@@H]2CCCN(c3nnc(C(N)=O)c(Nc4ccc(N5CCN(CC6CCN(c7ccc(N8CCC(=O)NC8=O)c(C(F)F)c7)CC6)CC5)c(F)c4)n3)C2)C1=O [Compound 188, (R)-5-((4-(4-((1-(3-(difluoromethyl)-4-(2,4-dioxotetrahydropyrimidin-1(2H)-yl)phenyl)piperidin-4-yl)methyl)piperazin-1-yl)-3-fluorophenyl)amino)-3-(3-(3-methyl-2-oxoimidazolidin-1-yl)piperidin-1-yl)-1,2,4-triazin-6-carboxamide]",8.26
< 1,"CC(C)c1cc(N2CCC(CN3CCN(c4ccc(Nc5nc(N6CCC[C@@H](N7CCN(C)C7=O)C6)nnc5C(N)=O)cc4F)CC3)CC2)ccc1N1CCC(=O)NC1=O [Compound 189, (R)-5-((4-(4-((1-(4-(2,4-dioxotetrahydropyrimidin-1(2H)-yl)-3-isopropylphenyl)piperidin-4-yl)methyl)piperazin-1-yl)-3-fluorophenyl)amino)-3-(3-(3-methyl-2-oxoimidazolidin-1-yl)piperidin-1-yl)-1,2,4-triazin-6-carboxamide]",8.26
< 1,"CN1CCN([C@@H]2CCCN(c3nnc(C(N)=O)c(Nc4ccc(N5CCN(CC6CCN(c7ccc(N8CCC(=O)NC8=O)c8ocnc78)CC6)CC5)c(F)c4)n3)C2)C1=O [Compound 191, (R)-5-((4-(4-((1-(7-(2,4-dioxotetrahydropyrimidin-1(2H)-yl)benzo[d]oxazol-4-yl)piperidin-4-yl)methyl)piperazin-1-yl)-3-fluorophenyl)amino)-3-(3-(3-methyl-2-oxoimidazolidin-1-yl)piperidin-1-yl)-1,2,4-triazin-6-carboxamide]",8.07
< 1,"CN1CCN([C@@H]2CCCN(c3nnc(C(N)=O)c(Nc4ccc(N5CCN(CC6CCN(c7ccc(N8CCC(=O)NC8=O)c8[nH]cnc78)CC6)CC5)c(F)c4)n3)C2)C1=O [Compound 192, (R)-5-((4-(4-((1-(7-(2,4-dioxotetrahydropyrimidin-1(2H)-yl)-1H-benzo[d]imidazol-4-yl)piperidin-4-yl)methyl)piperazin-1-yl)-3-fluorophenyl)amino)-3-(3-(3-methyl-2-oxoimidazolidin-1-yl)piperidin-1-yl)-1,2,4-triazin-6-carboxamide]",8.62
< 1,"CN1CCN([C@@H]2CCCN(c3nnc(C(N)=O)c(Nc4ccc(N5CCN(CC6CCN(c7ccc(NC8CCC(=O)NC8=O)c8c7OCO8)CC6)CC5)c(F)c4)n3)C2)C1=O (stereo partly drawn) [Compound 209, 5-((4-(4-((1-(7-((2,6-dioxopiperidin-3-yl)amino)benzo[d][1,3]dioxacyclopent-4-yl)piperidin-4-yl)methyl)piperazin-1-yl)-3-fluorophenyl)amino)-3-((R)-3-(3-methyl-2-oxoimidazolidin-1-yl)piperidin-1-yl)-1,2,4-triazin-6-carboxamide]",8.47
< 1,"CN1CCN([C@@H]2CCCN(c3nnc(C(N)=O)c(Nc4ccc(N5CCN(CC6CCN(c7ccc(NC8CCC(=O)NC8=O)c8ocnc78)CC6)CC5)c(F)c4)n3)C2)C1=O (stereo partly drawn) [Compound 210, 5-((4-(4-((1-(7-((2,6-dioxopiperidin-3-yl)amino)benzo[d]oxazol-4-yl)piperidin-4-yl)methyl)piperazin-1-yl)-3-fluorophenyl)amino)-3-((R)3-(3-methyl-2-oxoimidazolidin-1-yl)piperidin-1-yl)-1,2,4-triazin-6-carboxamide]",8.63
< 1,"CN1CCN([C@@H]2CCCN(c3nnc(C(N)=O)c(Nc4ccc(N5CCN(CC6CCN(c7ccc8c9c(cccc79)C(=O)N8C7CCC(=O)NC7=O)CC6)CC5)c(F)c4)n3)C2)C1=O (stereo partly drawn) [Compound 247, 5-((4-(4-((1-(1-(2,6-dioxopiperidin-3-yl)-2-oxo-1,2-dihydrobenzo[cd]indol-6-yl)piperidin-4-yl)methyl)piperazin-1-yl)-3-fluorophenyl)amino)-3-((R)-3-(3-methyl-2-oxoimidazolidin-1-yl)piperidin-1-yl)-1,2,4-triazin-6-carboxamide]",–
< 1,"CN1CCN([C@@H]2CCCN(c3nnc(C(N)=O)c(Nc4ccc(N5CCN(CC#Cc6ccc7c8c(cccc68)C(=O)N7C6CCC(=O)NC6=O)CC5)c(F)c4)n3)C2)C1=O (stereo partly drawn) [Compound 248, 5-((4-(4-(3-(1-(2,6-dioxopiperidin-3-yl)-2-oxo-1,2-dihydrobenzo[cd]indol-6-yl)propan-2-yn-1-yl)piperazin-1-yl)-3-fluorophenyl)amino)-3-((R)-3-(3-methyl-2-oxoimidazolidin-1-yl)piperidin-1-yl)-1,2,4-triazin-6-carboxamide]",–
< 1,"CN1CCN([C@@H]2CCCN(c3nnc(C(N)=O)c(Nc4ccc(N5CCN(CC6CCN(c7cccc8c(C(=O)NC9CCC(=O)NC9=O)cccc78)CC6)CC5)c(F)c4)n3)C2)C1=O (stereo partly drawn) [Compound 249, 5-((4-(4-((1-(5-((2,6-dioxopiperidin-3-yl)carbamoyl)naphthalen-1-yl)piperidin-4-yl)methyl)piperazin-1-yl)-3-fluorophenyl)amino)-3-((R)-3-(3-methyl-2-oxoimidazolidin-1-yl)piperidin-1-yl)-1,2,4-triazin-6-carboxamide]",–
< 1,"CN1CCN([C@@H]2CCCN(c3nnc(C(N)=O)c(Nc4ccc(N5CCN(CC6CCN(c7ccnc8c(C(=O)NC9CCC(=O)NC9=O)cccc78)CC6)CC5)c(F)c4)n3)C2)C1=O (stereo partly drawn) [Compound 250, 4-(4-((4-(4-((6-carbamoyl-3-((R)-3-(3-methyl-2-oxoimidazolidin-1-yl)piperidin-1-yl)-1,2,4-triazin-5-yl)amino)-2-fluorophenyl)piperazin-1-yl)methyl)piperidin-1-yl)-N-(2,6-dioxopiperidin-3-yl)quinolin-8-carboxamide]",–
< 1,CN1CCN([C@@H]2CCCN(c3nnc(C(N)=O)c(Nc4ccc(N5CCN(CC6CCN(c7ccc(NC8CCC(=O)NC8=O)cc7F)CC6)CC5)c(F)c4)n3)C2)C1=O (some centres unmarked) [Compound 251],–
< 1,CN1CCN([C@@H]2CCCN(c3nnc(C(N)=O)c(Nc4ccc(N5CCN(CC6CCN(c7ccc(NC8CCC(=O)NC8=O)cc7C(F)(F)F)CC6)CC5)c(F)c4)n3)C2)C1=O (some centres unmarked) [Compound 252],–
< 1,"CN1CCN([C@@H]2CCCN(c3nnc(C(N)=O)c(Nc4ccc(N5CCN(CC6CCN(c7ccc(NC8CCC(=O)NC8=O)cc7)CC6)CC5)c(F)c4)n3)C2)C1=O (stereo partly drawn) [Compound 253, 5-((4-(4-((1-(4-((2,6-dioxopiperidin-3-yl)amino)phenyl)piperidin-4-yl)methyl)piperazin-1-yl)-3-fluorophenyl)amino)-3-((R)-3-(3-methyl-2-oxoimidazolidin-1-yl)piperidin-1-yl)-1,2,4-triazin-6-carboxamide]",–
